Reference: the NIST ThermoML archive (doi:10.1021/je500498m)

Experiment: xn = mol fraction of the nth substance listed
Conditions: for speed of sound: 100 kPa, Sing-around technique in a fixed-path interferometer; for speed of sound / viscosity / mass density: Liquid; for viscosity / mass density: 101 kPa; for viscosity: Falling or rolling sphere viscometry; for mass density: Vibrating tube method; for surface tension liquid-gas: 294.4 K, Pendant drop shape

CCCCCCCCCCCCCCCC [hexadecane] + CCc1ccccc1
Conditions	mass density [kg/m3]	speed of sound [m/s]	viscosity [mPa·s]
293.15 K, x2 = 0	773.49	1357.3	3.44
293.15 K, x2 = 0.1007	777.15	1353.4	3.01
293.15 K, x2 = 0.2	781.37	1349.4	2.63
293.15 K, x2 = 0.3002	786.28	1345.2	2.28
293.15 K, x2 = 0.4013	792.08	1340.7	1.96
293.15 K, x2 = 0.5002	798.81	1336.7	1.69
293.15 K, x2 = 0.6001	806.86	1333.1	1.43
293.15 K, x2 = 0.7002	816.95	1330.4	1.21
293.15 K, x2 = 0.8001	829.46	1329.3	1.01
293.15 K, x2 = 0.9	845.47	1331.5	0.83
303.15 K, x2 = 0	766.55	1320	2.72
303.15 K, x2 = 0.1007	770.16	1316	2.42
303.15 K, x2 = 0.2	774.31	1312	2.14
303.15 K, x2 = 0.3002	779.13	1307.8	1.88
303.15 K, x2 = 0.4013	784.83	1303.1	1.64
303.15 K, x2 = 0.5002	791.42	1298.9	1.42
303.15 K, x2 = 0.6001	799.32	1295	1.23
303.15 K, x2 = 0.7002	809.21	1291.9	1.05
303.15 K, x2 = 0.8001	821.46	1291.1	0.88
303.15 K, x2 = 0.9	837.13	1291.3	0.73
313.15 K, x2 = 0	759.63	1283.3	–
313.15 K, x2 = 0.1007	763.17	1279.2	–
313.15 K, x2 = 0.2	767.24	1275.1	–
313.15 K, x2 = 0.3002	771.97	1270.8	–
313.15 K, x2 = 0.4013	777.56	1266	–
313.15 K, x2 = 0.5002	784.01	1261.6	–
313.15 K, x2 = 0.6001	791.75	1257.4	–
313.15 K, x2 = 0.7002	801.42	1253.8	–
313.15 K, x2 = 0.8001	813.41	1251.3	–
313.15 K, x2 = 0.9	828.73	1251.6	–
323.15 K, x2 = 0	752.71	1247.3	1.82
323.15 K, x2 = 0.1007	756.18	1243.2	1.65
323.15 K, x2 = 0.2	760.17	1239	1.49
323.15 K, x2 = 0.3002	764.8	1234.5	1.34
323.15 K, x2 = 0.4013	770.27	1229.4	1.19
323.15 K, x2 = 0.5002	776.58	1224.8	1.05
323.15 K, x2 = 0.6001	784.14	1220.3	0.92
323.15 K, x2 = 0.7002	793.6	1216.2	0.8
323.15 K, x2 = 0.8001	805.42	1213.1	0.68
323.15 K, x2 = 0.9	820.29	1212.5	0.57
333.15 K, x2 = 0	745.79	1212	1.53
333.15 K, x2 = 0.1007	749.19	1207.7	1.4
333.15 K, x2 = 0.2	753.09	1203.4	1.28
333.15 K, x2 = 0.3002	757.62	1198.8	1.15
333.15 K, x2 = 0.4013	762.96	1193.6	1.03
333.15 K, x2 = 0.5002	769.13	1188.6	0.92
333.15 K, x2 = 0.6001	776.51	1183.8	0.81
333.15 K, x2 = 0.7002	785.74	1179.2	0.7
333.15 K, x2 = 0.8001	797.18	1175.5	0.6
333.15 K, x2 = 0.9	811.8	1173.9	0.52
343.15 K, x2 = 0	738.9	–	1.31
343.15 K, x2 = 0.1007	742.2	–	1.21
343.15 K, x2 = 0.2	746	–	1.1
343.15 K, x2 = 0.3002	750.4	–	1.01
343.15 K, x2 = 0.4013	755.6	–	0.9
343.15 K, x2 = 0.5002	761.6	–	0.81
343.15 K, x2 = 0.6001	768.9	–	0.71
343.15 K, x2 = 0.7002	777.9	–	0.62
343.15 K, x2 = 0.8001	789	–	0.54
343.15 K, x2 = 0.9	803.3	–	0.47
353.15 K, x2 = 0	731.8	–	1.13
353.15 K, x2 = 0.1007	735	–	1.05
353.15 K, x2 = 0.2	738.7	–	0.96
353.15 K, x2 = 0.3002	743	–	0.88
353.15 K, x2 = 0.4013	748.1	–	0.8
353.15 K, x2 = 0.5002	754	–	0.71
353.15 K, x2 = 0.6001	761.1	–	0.64
353.15 K, x2 = 0.7002	769.8	–	0.56
353.15 K, x2 = 0.8001	780.7	–	0.49
353.15 K, x2 = 0.9	794.5	–	0.43
363.15 K, x2 = 0	724.7	–	0.99
363.15 K, x2 = 0.1007	727.8	–	0.92
363.15 K, x2 = 0.2	731.5	–	0.85
363.15 K, x2 = 0.3002	735.6	–	0.78
363.15 K, x2 = 0.4013	740.6	–	0.7
363.15 K, x2 = 0.5002	746.3	–	0.63
363.15 K, x2 = 0.6001	753.1	–	0.58
363.15 K, x2 = 0.7002	761.6	–	0.51
363.15 K, x2 = 0.8001	772.2	–	0.45
363.15 K, x2 = 0.9	785.6	–	0.39
373.15 K, x2 = 0	717.5	–	0.87
373.15 K, x2 = 0.1007	720.6	–	0.82
373.15 K, x2 = 0.2	724.1	–	0.76
373.15 K, x2 = 0.3002	728.1	–	0.69
373.15 K, x2 = 0.4013	732.9	–	0.63
373.15 K, x2 = 0.5002	738.4	–	0.57
373.15 K, x2 = 0.6001	745.1	–	0.52
373.15 K, x2 = 0.7002	753.3	–	0.47
373.15 K, x2 = 0.8001	763.6	–	0.41
373.15 K, x2 = 0.9	776.6	–	0.36

Conditions	surface tension liquid-gas [mN/m]
x2 = 0	27.3
x2 = 0.2	27.4
x2 = 0.4013	27.5
x2 = 0.5002	27.5
x2 = 0.6001	27.8
x2 = 0.7002	28
x2 = 0.8001	28.2
x2 = 0.9	28.5
